# Target: T1, endothelial lipase (EL) (Homo sapiens, UniProt Q9Y5X9)
# T1 construct: made in house; host or cells: recombinant CHO or HEK293 cell lines; concentrated conditioned medium used as enzyme solution
# T1 sequence (Q9Y5X9 21-500): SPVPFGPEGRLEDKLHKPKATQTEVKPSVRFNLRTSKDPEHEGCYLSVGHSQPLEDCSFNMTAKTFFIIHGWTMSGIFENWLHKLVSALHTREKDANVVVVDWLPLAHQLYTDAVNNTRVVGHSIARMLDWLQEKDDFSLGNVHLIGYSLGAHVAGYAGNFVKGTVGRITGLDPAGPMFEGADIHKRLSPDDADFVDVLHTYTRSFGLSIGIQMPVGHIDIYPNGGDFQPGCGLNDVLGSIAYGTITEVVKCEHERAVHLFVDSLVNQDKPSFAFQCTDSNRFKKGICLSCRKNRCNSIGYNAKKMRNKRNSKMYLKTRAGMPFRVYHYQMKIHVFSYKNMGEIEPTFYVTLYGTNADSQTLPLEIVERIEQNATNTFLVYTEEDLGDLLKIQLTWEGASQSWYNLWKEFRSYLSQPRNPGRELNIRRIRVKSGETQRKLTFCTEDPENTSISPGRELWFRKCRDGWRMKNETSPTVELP
# Experiment: EL inhibition assay (endothelial lipase activity, fluorescent Bodipy phospholipid substrate)
# Assay type: biochemical
# Conditions: 37° C., 90 minutes; enzyme from conditioned medium of recombinant cell lines (CHO, HEK293)
# Experimental: The activity of the compounds of the invention of the formula I was tested in the following enzyme assay system: […]
# EL is released as secretory protein in high concentration into cell culture medium (conditioned medium) by recombinant cell lines (CHO, HEK293). This is employed as enzyme solution after concentration.
# The phospholipase-specific substrate 1,2-bis(4,4-difluoro-5,7-dimethyl-4-bora-3a,4a-diaza-s-indacene-3-undecanoyl)-sn-glycero-3-phosphocholine, (manufacturer Molecular Probes) is used to characterize the enzymatic activity of endothelial lipase and the effect of inhibitors. Hydrolysis of the A1 ester linkage of this phospholipid by the enzyme liberates a fatty acid labeled by the fluorescent dye Bodipy which can be detected after separation by thin-layer chromatography on an HPTLC plate (silica gel 60, Merck) or directly in the reaction vessel by measuring the fluorescence.
# The substrate solution is prepared by dissolving 100 μg of 1,2-bis(4,4-difluoro-5,7-dimethyl-4-bora-3a,4a-diaza-s-indacene-3-undecanoyl)-sn-glycero-3-phosphocholine (manufacturer Molecular Probes) in 100 μl DMSO and taking it up in 2.4 mg of tripalmitin (Sigma) in 393 μl chloroform which contains 20 mg/ml DOP-choline (1,2-dioleoyl-sn-glycero-3-phosphocholine). 39.3 μl of this lipid mixture are transferred into a fresh reaction vessel and the solvent is evaporated. The lipid mixture is dissolved in 4 ml of 200 mM TRIS-HCl, 150 mM sodium chloride, pH=7.4, by sonication twice. The subsequent enzymic reaction takes place at 37° C. for 90 minutes. For this purpose, 20 μl of the substrate solution are incubated with 2 μl of inhibitor of appropriate concentration (dissolved in 10% DMSO, 10% strength DMSO solution is used as control) and 2 μl of enzyme solution (conditioned medium). Then 4 μl of the assay mixture are loaded onto an HPTLC plate (silica gel 60, Merck), and the liberated fluorescent dye is separated for detection with an eluent (diethyl ether:petroleum benzine:acetic acid [78:22:1]). After evaporation of the eluent, the plate is read in a fluorescence scanner. An increased release of the fluorescent dye in the uninhibited reaction is to be observed as a measure of the enzymic activity.
# The enzymatic activity is reduced as a function of the inhibitor concentration used, and the inhibitor concentration at which a half-maximum enzymic activity is observed is called IC50.
row,Compound,IC50 [µM]
1,Cc1c(C(C)C)c(=O)on1C(=O)NCc1cc2ccccc2s1 [Example 8],3.2
2,Cc1c(C)n(C(=O)NC2CCc3ccccc32)oc1=O (stereo not drawn) [Example 31],0.1
3,Cc1c(C(C)C)c(=O)on1C(=O)NCc1cccs1 [Example 18],14.1
4,O=C(N[C@H]1CCc2ccccc21)n1oc(=O)cc1C1CC1 [Example 44],0.5
5,Cc1ccc(CNC(=O)n2oc(=O)c(C(C)C)c2C)cc1 [Example 7],0.9
6,Cc1c(C(C)C)c(=O)on1C(=O)NC1CCc2ccccc21 (stereo not drawn) [Example 10],0.06

# The next compounds have a lower IC50 than those just listed; values first:
row,IC50 [µM],Compound
1,0.035,Cc1ccc(CNC(=O)n2oc(=O)c3c2CCCC3)cc1 [Example 26]
2,0.028,Cc1ccccc1CNC(=O)n1oc(=O)c(C(C)C)c1C [Example 6]
3,0.001,Cc1cccc(C)c1CNC(=O)n1oc(=O)c2c1CCCC2 [Example 39]
4,0.009,Cc1ccc(CNC(=O)n2oc(=O)c3c2CCCC3)cc1C [Example 25]
5,0.004,Cc1ccc(CNC(=O)n2oc(=O)c(C(C)C)c2C)cc1C [Example 16]
6,0.053,Cc1cccc(CNC(=O)n2oc(=O)c3c2CCCC3)c1 [Example 40]
